# pIC50: −log10 of the molar value. Where two headings read alike, the source gives them in different places.
# Tests used:
# [1] = system: Col2, colon cancer; test: In vitro cytotoxicity, human tumor panel: Col2; assay type: cell-based; conditions: for IC50: Homo sapiens, read-out: ED50 Col2
# Description: (§1) Cytotoxicity assay. Compounds 1–9 were evaluated for cytotoxic activity against a panel of human cancer cell lines, including KB-V1 in the presence and absence of VLB, according to an established protocol (68).
# [2] = system: LNCaP, hormone-dependent prostate cancer; test: In vitro cytotoxicity, human tumor panel: LNCaP; assay type: cell-based; conditions: for IC50: Homo sapiens, LNCaP, read-out: ED50 LNCaP
# Description: as §1
# [3] = system: Lu1, lung cancer; test: In vitro cytotoxicity, human tumor panel: Lu1; assay type: cell-based; conditions: for IC50: Homo sapiens, read-out: ED50 Lu1
# Description: as §1
# [4] = system: SW626, human ovarian adenocarcinoma; test: In vitro cytotoxicity, human tumor panel: SW626; assay type: cell-based; conditions: for IC50: SW626, read-out: ED50 SW626
# Description: as §1
# [5] = system: KB, oral epidermoid carcinoma; test: In vitro cytotoxicity, human tumor panel: KB; assay type: cell-based; conditions: for IC50: Homo sapiens, read-out: ED50 KB
# Description: as §1
# [6] = system: BC1, breast cancer; test: In vitro cytotoxicity, human tumor panel: BC1; assay type: cell-based; conditions: for IC50: Homo sapiens, read-out: ED50 BCI
# Description: as §1
# [7] = system: KB-V1, drug resistant KB; test: In vitro cytotoxicity, human tumor panel: KB-V1 with or without vinblastine; assay type: cell-based; conditions: for IC50: Homo sapiens, KB-V1, read-out: ED50 KB-V1−; for ED50 KB-V1+: drug resistant KB assessed in presence of vinblastine (1 μg/mL)
# Description: as §1
# [8] = system: SKVLB (ovarian adenocarcinoma, multidrug resistance); test: Multidrug resistance inhibition in SKVLB (pGp +ve); assay type: cell-based, human
# [9] = system: SKOV3 (ovarian adenocarcinoma); test: Cytotoxicity in ovarian adenocarcinoma SKOV3 (pGp -ve); assay type: cell-based; conditions: Homo sapiens, SK-OV-3, read-out: IC50 SKOV3 (pGp − ve)
# Description: as §1
# [10] = drug-resistant KB assessed in the absence of vinblastine
Compound,IC50 [1] [µg/mL],IC50 [2] [µg/mL],IC50 [3] [µg/mL],melting point [°C],IC50 [4] [µg/mL],IC50 [5] [µg/mL],IC50 [6] [µg/mL],"IC50 [7, 10] [µg/mL]",ED50 KB-V1+ [7] [µg/mL],ED50 Col2 [1] [µg/mL],ED50 LNCaP [2] [µg/mL],ED50 Lu1 [3] [µg/mL],ED50 SW626 [4] [µg/mL],ED50 KB [5] [µg/mL],ED50 BCI [6] [µg/mL],"ED50 KB-V1− [7, 10] [µg/mL]","pIC50 ([8]; Homo sapiens, read-out: IC50 BSKVLB (pGp + ve))","pIC50 ([8]; read-out: IC50 SKVLB (pGp + ve), addition of adriamycin, Addition of 1 μm adriamycin)",pIC50 [9]
"CN1[C@@H]2C[C@@H](OC(=O)Cc3ccccc3)C[C@H]1[C@H](O)[C@@H]2O [Compound 1, Tropane-3α,6β,7β-triol 3-phenylacetate]",> 20,> 20,> 20,120 to 122,> 20,> 20,> 20,> 20,>20,,,,,,,,,,
"COc1cc(C(=O)O[C@H]2C[C@H]3CC[C@@H](C2)N3C)cc(OC)c1OC [Compound 2, 1αH,5αH-Tropan-3α-yl 3,4,5-trimethoxy-benzoate]",,,,,,,,,>20,>20,>20,>20,>20,>20,>20,>20,,,
"COc1cc(C=CC(=O)O[C@H]2[C@@H](O)[C@@H]3C[C@H](OC(=O)c4cc(OC)c(OC)c(OC)c4)C[C@H]2[N+]3(C)[O-])cc(OC)c1OC (stereo partly drawn) [Compound 4, 3α-(3,4,5-trimethoxybenzoyloxy)-6β-(3,4,5-trimethoxycinnamoyloxy)-7β-hydroxytropane N-oxide]",> 20,> 20,> 20,118 to 121,> 20,> 20,> 20,> 20,>20,,,,,,,,< 5.00,< 5.00,< 5.00
"COc1cc(C=CC(=O)O[C@H]2C[C@@H]3C[C@H](OC(=O)Cc4cccc(O)c4)C[C@H]2N3C)cc(OC)c1OC [Compound 8, 3α-(3-hydroxyphenylacetoxy)-6β-(3,4,5-trimethoxycinnamoyloxy)-tropane]",13.4,> 20,> 20,53 to 57,8.4,14.7,> 20,> 20,1.9,,,,,,,,,,
